# According to patent US20260305610A1, “TRIAZOLE COMPOUND, AND PREPARATION METHOD THEREFOR, HERBICIDAL COMPOSITION AND USE THEREOF” (QINGDAO KINGAGROOT CHEMICAL COMPOUND CO., LTD., priority 2023, published 2026):
# Legend:
# Descurainia sophia = assay: Activity assay of compositions: post-emergence spray treatment of stems and leaves (F), fresh weight inhibition and combined effect (Gowing method); format: in vivo; details: 21 d
# Experimental: (§1) The required active ingredient B was purchased from a reagent company or a technical material manufacturer or synthesized by a conventional method. The technical materials were all dissolved with acetone solvents and diluted with aqueous solution of 0.1% Tween-80 emulsifier, which should be used immediately after dilution.
# Descurainia sophia weeds were cultivated by a pot culture method. […] Weed seeds with plump and uniform grains were selected, treated with 30% hydrogen peroxide for 10 min, and accelerated to germinate at 15-20° C. in a biochemical incubator (in darkness). The weed seeds that had just germinated were evenly placed on the surface of the soil and then covered with 0.5-1 cm soil according to the sizes of seeds.
# The culture was carried out in a controllable sunlight greenhouse at 20-30° C., in natural light, and with relative humidity of 57%-72%.
# Each treatment was repeated 4 times. Three pots with 20 weed seeds sowed per pot were treated each time.
# The agents were used once in total in the experiment. When at the stage of 1.5-2 leaves, the weeds were thinned out to maintain 10 weeds per pot. Thirty weeds were kept in each treatment, and then continued to be cultured until the 10-leaf stage for further treatment.
# (§2) The well-cultured test materials were evenly placed on a platform with an area of 0.5 m^2, and foliage spraying was carried out by the 3WP-2000-type walking spray tower at a dosage of 450 kg/ha and a spray pressure of 0.3 MPa. After all the solution was sprayed, the air valve was closed, and 30 seconds later, the door of the spray tower was opened, and the nutritional bowl was taken out. Next, the air valve was opened, and the spray tube was cleaned by spraying 50 ml of water. The test materials were transferred to and routinely cultured in a greenhouse after the treatment.
# (§3) A method for investigating absolute numbers was employed. Whole seedlings of survival weeds were cut off along the soil surface with a blade, and the fresh weight of the weeds was weighed using an analytical balance. For dead weeds, the fresh weight thereof was zero.
# (§4) The investigation was performed 21 days after the treatment for once in total.
# (§5) The theoretical fresh weight inhibition rate of a mixed combination of each treatment was calculated by the Gowing method (E0=X+Y−X*Y/100). Then compared with the measured inhibition rate (E), the type of the combined effect of the combination of the two on weeds was evaluated, which was a synergistic effect when E−E0>10%; an antagonistic effect when E−E0<−10%; an additional effect when −10%≤E−E0≤10%. An optimal ratio was determined according to factors such as the actual control effects, characteristics of herbicides, balance of the formulation, etc. In the formula, X represents the fresh weight inhibition rate of the active ingredient A in a dosage of P; Y represents the fresh weight inhibition rate of the active ingredient B in a dosage of Q. The statistical results are shown in Table 4.
# weeds = assay: Activity assay of compositions: soil sealing treatment (S), fresh weight inhibition and combined effect (Gowing method); format: in vivo; details: 21 d
# Experimental: as §1
# • Weeds were cultivated in a controllable sunlight greenhouse at 20 to 30° C., in natural light, and with relative humidity of 57% to 72%. […] The test soil was quantitatively filled to ¾ of the pot, and then watered from the bottom of the pot to completely wet the soil to saturation. The test weed seeds were accelerated to just germinate, and then evenly and quantitatively broadcasted on the soil surface, covered with 0.5-1 cm soil according to the sizes of the seeds, and ready for use 72 hours after sowing.
# Each treatment was repeated 4 times. Four pots with 20 weed seeds sowed per pot were treated each time.
# as §2, with “well-sowed” for “well-cultured”, “closed. And” for “closed, and”, “water.” for “water. The test materials were transferred to and routinely cultured in a greenhouse after the treatment.”
# as §3, §4, §5
structure (smiles),measurement,setting,value
O=C(O)CNCP(=O)(O)O [Glyphosate],Control effect of B applied alone in a corresponding dose (%),Descurainia sophia; B 75 g a.i./ha,56.6%
same,Control effect of B applied alone in a corresponding dose (%),Descurainia sophia; B 150 g a.i./ha,75.8%
O=C(O)c1nc(Cl)ccc1Cl [Clopyralid],Control effect of B applied alone in a corresponding dose (%),Descurainia sophia; B 30 g a.i./ha,40.5%
same,Control effect of B applied alone in a corresponding dose (%),Descurainia sophia; B 60 g a.i./ha,58.8%
c1cc[n+]2c(c1)-c1cccc[n+]1CC2 [Diquat dibromide monohydrate],Control effect of B applied alone in a corresponding dose (%),Descurainia sophia; B 60 g a.i./ha,42.2%
same,Control effect of B applied alone in a corresponding dose (%),Descurainia sophia; B 120 g a.i./ha,66.6%
Cc1nn(C)cc1C(=O)Oc1c(C(=O)c2ccc(C(F)(F)F)cc2S(C)(=O)=O)c(C)nn1C [Bipyrazone],Control effect of B applied alone in a corresponding dose (%),Descurainia sophia; B 15 g a.i./ha,55.4%
same,Control effect of B applied alone in a corresponding dose (%),Descurainia sophia; B 30 g a.i./ha,78.9%
COC(=O)c1nc(-c2ccc(Cl)c(OC)c2F)cc(N)c1Cl [Halauxifen-methyl],Control effect of B applied alone in a corresponding dose (%),Descurainia sophia; B 3 g a.i./ha,42.0%
same,Control effect of B applied alone in a corresponding dose (%),Descurainia sophia; B 6 g a.i./ha,67.4%
COc1c(Cl)ccc(Cl)c1C(=O)O [Dicamba],Control effect of B applied alone in a corresponding dose (%),Descurainia sophia; B 37.5 g a.i./ha,39.6%
same,Control effect of B applied alone in a corresponding dose (%),Descurainia sophia; B 75 g a.i./ha,50.8%
C[n+]1ccc(-c2cc[n+](C)cc2)cc1 [Paraquat dichloride],Control effect of B applied alone in a corresponding dose (%),Descurainia sophia; B 30 g a.i./ha,46.9%
same,Control effect of B applied alone in a corresponding dose (%),Descurainia sophia; B 60 g a.i./ha,68.0%
CCOC(=O)c1nc(-c2ccc(C(F)(F)F)c(OC)c2F)nc(N)c1OC,Control effect of B applied alone in a corresponding dose (%),Descurainia sophia; B 6 g a.i./ha,26.8%
same,Control effect of B applied alone in a corresponding dose (%),Descurainia sophia; B 12 g a.i./ha,37.7%
CP(=O)(O)CCC(N)C(=O)O (stereo not shown) [Glufosinate-ammonium],Control effect of B applied alone in a corresponding dose (%),Descurainia sophia; B 60 g a.i./ha,50.7%
same,Control effect of B applied alone in a corresponding dose (%),Descurainia sophia; B 120 g a.i./ha,71.5%
CCOC(=O)COc1ncccc1Oc1cc(-n2c(=O)cc(C(F)(F)F)n(C)c2=O)c(F)cc1Cl [Epyrifenacil],Control effect of B applied alone in a corresponding dose (%),"weeds; Commelina communis, B 30 g a.i./ha",38.8%
same,Control effect of B applied alone in a corresponding dose (%),"weeds; Commelina communis, B 60 g a.i./ha",50.5%
Cc1ccc(NC(=O)N(C)C)cc1Cl [Chlorotoluron],Control effect of B applied alone in a corresponding dose (%),"weeds; Lolium temulentum, B 375 g a.i./ha",34.3%
same,Control effect of B applied alone in a corresponding dose (%),"weeds; Lolium temulentum, B 750 g a.i./ha",59.3%
CC(C)C12CCC(C)(O1)C(OCc1c(F)cccc1Br)C2 (stereo not shown),Control effect of B applied alone in a corresponding dose (%),"weeds; Lolium multiflorum, B 30 g a.i./ha",55.2%
same,Control effect of B applied alone in a corresponding dose (%),"weeds; Lolium multiflorum, B 60 g a.i./ha",70.4%
CCOCN(C(=O)CCl)c1c(C)cccc1CC [Acetochlor],Control effect of B applied alone in a corresponding dose (%),"weeds; Amaranthus retroflexus, B 150 g a.i./ha",40.2%
same,Control effect of B applied alone in a corresponding dose (%),"weeds; Amaranthus retroflexus, B 300 g a.i./ha",58.3%
"C[N+](C)(C)CCO.O=C([O-])COc1ccc(Cl)cc1Cl [2,4-D-Choline]",Control effect of B applied alone in a corresponding dose (%),Descurainia sophia; B 150 g a.i./ha,44.7%
same,Control effect of B applied alone in a corresponding dose (%),Descurainia sophia; B 300 g a.i./ha,60.0%
